# Experimental data: PubChem BioAssay AID651630 (Sanford-Burnham Center for Chemical Genomics, 2012)
# The source made the active and inactive calls.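 The calls were made as follows: active = lipid-stain IC50 at or below a set limit, with nuclear-stain toxicity IC50 at least five times higher; inactive = the rest.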
# Key:
# TAG = assay: triacylglycerol accumulation inhibitor potency, dose response, cell-based, panel, Nile Red and DAPI fluorescence, H9c2 (AID 651630); conditions: H9c2 cells, Nile Red TAG fluorescence, oleic acid;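 also: cells exposed to compound overnight before fixation and staining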
# DAPI = assay: as above; conditions: H9c2 cells, DAPI nuclear fluorescence (cytotoxicity counter-readout), oleic acid
Structure (SMILES),IC50 (TAG; mean of runs),IC50 (TAG; run 1) [µM],IC50 (TAG; run 2) [µM],IC50 cytotoxicity (DAPI nuclear signal decrease) (DAPI; run 1) [µM],IC50 cytotoxicity (DAPI nuclear signal decrease) (DAPI; run 2) [µM],IC50 cytotoxicity (DAPI nuclear signal decrease) (DAPI; mean of runs)
Cc1nc(C(=O)Nc2ccccc2Cl)cc2c1[nH]c1ccccc12,3.06 µM,2.87,3.24,> 25,> 25,–
C=CCC[C@@H](Cc1ccc(F)cc1)C(=O)OC[C@H](Cc1c[nH]c2ccccc12)NC(=O)[C@@H](CC=C)CC(=O)N(CCO)Cc1ccccc1,13.1 µM,10.7,15.4,> 25,> 25,> 25 µM (inactive)
COc1ccccc1-c1cc(C(F)(F)F)nc(S(=O)(=O)CCCC(=O)NC(C)C)n1,11.2 µM,13.5,8.8,19.9,17,18.4 µM (inactive)
CC1(C(=O)NCc2ccccc2)Cc2c(-c3cccc(C(N)=O)c3)ccnc2O1 (stereo not drawn),–,20.9,> 25,> 25,> 25,> 25 µM (inactive)
C=CCC[C@H](Cc1ccc(F)cc1)C(=O)OC[C@@H](NC(=O)[C@@H](CC=C)CC(=O)N(CCO)Cc1ccccc1)C(C)(C)C,2.94 µM,2.57,3.32,> 25,> 25,–
CCn1c(SCC(=O)Nc2nc(-c3ccc(C)cc3)cs2)nnc1-c1ccccc1O,1.68 µM,1.65,1.71,> 25,> 25,–
COc1ccc(NC(=O)Cn2c(=O)n(-c3ccc(CC(=O)NCc4ccco4)cc3)c(=O)c3ccccc32)cc1,–,24.7,> 25,> 25,> 25,> 25 µM (inactive)
O=C(Nc1ccc(S(=O)(=O)N2CCOCC2)cc1)c1ccc([N+](=O)[O-])s1,10.9 µM,13.1,8.75,> 25,> 25,> 25 µM (inactive)
CCc1ccc(-c2nc(C(N)=O)c3[nH]c(=O)n(-c4ccccc4OC)c3n2)cc1,2.73 µM,2.74,2.71,> 25,> 25,–
CCOc1ccccc1C1C2=C(COC2=O)Nc2cc3c(cc21)OCO3 (stereo not drawn),–,> 25,< 0.78,> 25,> 25,> 25 µM (inactive)
CCOc1cc(C(=O)N/N=C/c2cn(-c3ccccc3)nc2-c2cc3ccccc3o2)cc(OCC)c1OCC,10.2 µM,9.28,11.2,> 25,> 25,> 25 µM (inactive)
C=CC[C@@H](CC(=O)N(CCO)Cc1ccccc1)C(=O)N[C@H](COC(=O)[C@@H](CC=C)CC(=O)OC(C)(C)C)C(C)(C)C,3.39 µM,4.3,2.48,> 25,> 25,–
CCOc1cc(CNc2ccc3c(c2)OCCO3)cc(Br)c1OCC,> 25 µM (inactive),> 25,> 25,> 25,> 25,> 25 µM (inactive)
Cc1cccc(-c2ccc3[nH]c4c(c3c2)CCN2C[C@@H]([C@H](C)O)[C@@H](N(C)C(=O)Nc3ccc(F)cc3)C[C@@H]42)c1,–,18,> 25,> 25,> 25,> 25 µM (inactive)
COc1cccc(NC(=O)N2CCc3nc(Nc4ccc(C(C)C)cc4)ncc3C2)c1,2.73 µM,2.94,2.52,> 25,> 25,–
COc1ccc(C(C(=O)NC(C)(C)C)N(Cc2cccs2)C(=O)CCC(=O)Nc2cc(C)on2)cc1 (stereo not drawn),13.6 µM,12.7,14.4,> 25,> 25,> 25 µM (inactive)
COc1cc(OC)c2c(-c3ccccc3)cc(=O)oc2c1C(CCN1CCCCC1)c1ccc2c(c1)OCO2 (stereo not drawn),22.9 µM (inactive),20.9,24.9,> 25,> 25,> 25 µM (inactive)
S=C(N/N=C/c1cccs1)NC1CC2CCC1C2 (stereo not drawn),8.53 µM,4.71,12.3,> 25,> 25,> 25 µM (inactive)
